# pIC50: −log10 of the molar value.
# Biological target: T1, purified human HDAC6 (Homo sapiens, UniProt Q9UBN7)
# T1 construct: purchased BPS Bioscience 5006
# T1 sequence (Q9UBN7 1-1215): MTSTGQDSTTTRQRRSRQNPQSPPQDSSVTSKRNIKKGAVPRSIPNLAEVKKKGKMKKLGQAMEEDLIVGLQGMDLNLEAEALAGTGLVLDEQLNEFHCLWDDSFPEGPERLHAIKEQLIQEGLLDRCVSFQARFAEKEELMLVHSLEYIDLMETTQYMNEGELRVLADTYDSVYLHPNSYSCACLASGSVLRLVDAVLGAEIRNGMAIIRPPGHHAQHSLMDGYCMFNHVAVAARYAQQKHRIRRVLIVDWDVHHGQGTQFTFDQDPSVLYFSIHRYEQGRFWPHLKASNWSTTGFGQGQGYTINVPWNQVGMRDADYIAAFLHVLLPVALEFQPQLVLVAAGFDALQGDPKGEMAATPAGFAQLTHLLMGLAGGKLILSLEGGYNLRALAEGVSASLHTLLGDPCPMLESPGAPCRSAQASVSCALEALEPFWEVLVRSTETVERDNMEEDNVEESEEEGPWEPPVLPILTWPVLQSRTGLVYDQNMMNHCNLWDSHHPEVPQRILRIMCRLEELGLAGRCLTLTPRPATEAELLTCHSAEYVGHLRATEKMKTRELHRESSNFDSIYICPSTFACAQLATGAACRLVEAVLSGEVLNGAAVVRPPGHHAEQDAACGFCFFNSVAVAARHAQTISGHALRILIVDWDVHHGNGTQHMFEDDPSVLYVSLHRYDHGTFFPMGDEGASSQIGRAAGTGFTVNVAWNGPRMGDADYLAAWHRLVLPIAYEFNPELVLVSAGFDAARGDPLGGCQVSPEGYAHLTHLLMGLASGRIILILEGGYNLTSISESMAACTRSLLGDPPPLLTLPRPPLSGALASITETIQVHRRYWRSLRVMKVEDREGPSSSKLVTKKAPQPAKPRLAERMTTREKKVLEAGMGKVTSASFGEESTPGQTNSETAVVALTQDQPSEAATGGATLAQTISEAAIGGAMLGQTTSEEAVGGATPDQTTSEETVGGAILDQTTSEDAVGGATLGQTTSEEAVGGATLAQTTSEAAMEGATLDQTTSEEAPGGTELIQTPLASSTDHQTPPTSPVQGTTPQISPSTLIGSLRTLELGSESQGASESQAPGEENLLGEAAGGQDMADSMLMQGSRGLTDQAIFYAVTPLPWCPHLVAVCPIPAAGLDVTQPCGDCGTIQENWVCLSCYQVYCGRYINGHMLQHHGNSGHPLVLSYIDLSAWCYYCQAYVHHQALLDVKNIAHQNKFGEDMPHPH
# Assay: HDAC6 Enzyme Assay
# Type: biochemical
# Details: bin: greater than 500 nM and less than 1 μM (lower bound in nM, upper bound in μM)
# Experimental: To measure the inhibition of HDAC6 activity, purified human HDAC6 (BPS Bioscience; Cat. No. 5006) is incubated with substrate Ac-Arg-Gly-Lys(Ac)-AMC peptide (Bachem Biosciences; Cat. No. 1-1925) for 1 hour at 30° C. in the presence of test compounds or vehicle DMSO control. The reaction is stopped with the HDAC inhibitor trichostatin A (Sigma; Cat. No. T8552) and the amount of Arg-Gly-Lys-AMC generated is quantitated by digestion with trypsin (Sigma; Cat. No. T1426) and subsequent measurement of the amount of AMC released using a fluorescent plate reader (Pherastar; BMG Technologies) set at Ex 340 nm and Em 460 nm. Concentration response curves are generated by calculating the fluorescence increase in test compound-treated samples relative to DMSO-treated controls, and enzyme inhibition (IC50) values are determined from those curves.
row,SMILES,IC50
1,"CC(C)(C)C(NC(=O)C1(c2ccc(Cl)cc2)CC1)c1ccc(C(=O)NO)cc1 (stereo not shown) [Compound I-41, 4-[1-({[1-(4-chlorophenyl)cyclopropyl]carbonyl}amino)-2,2-dimethylpropyl]-N-hydroxybenzamide]",500 to 1000 nM
2,"CC(C)(C)C(NC(=O)c1cc(C(F)(F)F)cc(C(F)(F)F)c1)c1ccc(C(=O)NO)cc1 (stereo not shown) [Compound I-52, N-(1-{4-[(hydroxyamino)carbonyl]phenyl}-2,2-dimethylpropyl)-3,5-bis(trifluoromethyl)benzamide]",500 to 1000 nM

# Same assay, conditions: bin: greater than 1 μM
row,SMILES,pIC50
1,"CC(NC(=O)c1cc(Cl)c(Cl)n1C)c1cccc(C(=O)NO)c1 (stereo not shown) [Compound I-39, 4,5-dichloro-N-(1-{3-[(hydroxyamino)carbonyl]phenyl}ethyl)-1-methyl-1H-pyrrole-2-carboxamide]",< 6.00
2,"CC(NC(=O)c1cnnc2ccccc12)c1ccc(C(=O)NO)cc1 (stereo not shown) [Compound I-56, N-(1-{4-[(hydroxyamino)carbonyl]phenyl}ethyl)cinnoline-4-carboxamide]",< 6.00
3,"CC(NC(=O)c1ccccc1C(F)(F)F)c1cccc(C(=O)NO)c1 (stereo not shown) [Compound I-57, N-(1-{3-[(hydroxyamino)carbonyl]phenyl}ethyl)-2-(trifluoromethyl)benzamide]",< 6.00
4,"COc1ccc(CCCC(=O)NC(C)c2ccc(C(=O)NO)cc2)cc1 (stereo not shown) [Compound I-70, N-hydroxy-4-(1-{[4-(4-methoxyphenyl)butanoyl]amino}ethyl)benzamide]",< 6.00
5,"CC(NC(=O)c1cc2oc(-c3ccc(C(F)(F)F)cc3)cc2n1C)c1cccc(C(=O)NO)c1 (stereo not shown) [Compound I-72, N-(1-{3-[(hydroxyamino)carbonyl]phenyl}ethyl)-4-methyl-2-[4-(trifluoromethyl)phenyl]-4H-furo[3,2-b]pyrrole-5-carboxamide]",< 6.00

# Same assay, conditions: purified human HDAC6, substrate Ac-Arg-Gly-Lys(Ac)-AMC, 1 hour at 30° C.; reported as bins
row,SMILES,pIC50
1,"CC(NC(=O)Nc1ccc(F)cc1)c1ccc(C(=O)NO)cc1 (stereo not shown) [Compound I-37, 4-[1-({[(4-fluorophenyl)amino]carbonyl}amino)ethyl]-N-hydroxybenzamide]",> 7.00
2,"CC(C)Oc1ccc(C(=O)NC(C)c2ccc(C(=O)NO)cc2)cc1 (stereo not shown) [Compound I-38, N-(1-{4-[(hydroxyamino)carbonyl]phenyl}ethyl)-4-isopropoxybenzamide]",> 7.00
3,"CC(C)C(NC(=O)c1ccc(F)cc1)c1ccc(C(=O)NO)cc1 (stereo not shown) [Compound I-40, 4-fluoro-N-(1-{4-[(hydroxyamino)carbonyl]phenyl}-2-methylpropyl)benzamide]",6.30 to 7.00
4,"Cc1nc(C(=O)NC(c2ccc(C(=O)NO)cc2)C(C)(C)C)cs1 (stereo not shown) [Compound I-42, N-(1-{4-[(hydroxyamino)carbonyl]phenyl}-2,2-dimethylpropyl)-2-methyl-1,3-thiazole-4-carboxamide]",6.30 to 7.00
5,"CC(C)C(NC(=O)c1ccc2ncsc2c1)c1ccc(C(=O)NO)cc1 (stereo not shown) [Compound I-43, N-(1-{4-[(hydroxyamino)carbonyl]phenyl}-2-methylpropyl)-1,3-benzothiazole-6-carboxamide]",6.30 to 7.00
6,"COc1ccc(NC(=O)NC(C)c2ccc(C(=O)NO)cc2)c(OC)c1 (stereo not shown) [Compound I-44, 4-[1-({[(2,4-dimethoxyphenyl)amino]carbonyl}amino)ethyl]-N-hydroxybenzamide]",> 7.00
7,"CC(NC(=O)CCc1ccccc1)c1ccc(C(=O)NO)cc1 (stereo not shown) [Compound I-45, N-hydroxy-4-{1-[(3-phenylpropanoyl)amino]ethyl}benzamide]",> 7.00
8,"O=C(NO)c1ccc([C@H](NC(=O)C23CC4CC(CC(C4)C2)C3)C2CC2)cc1 [Compound I-46, N-((R)-cyclopropyl{4-[(hydroxyamino)carbonyl]phenyl}methyl)adamantane-1-carboxamide]",6.30 to 7.00
9,"COc1ccc(S(=O)(=O)NC(C)c2ccc(C(=O)NO)cc2)cc1 (stereo not shown) [Compound I-47, N-hydroxy-4-(1-{[(4-methoxyphenyl)sulfonyl]amino}ethyl)benzamide]",6.30 to 7.00
10,"Cc1oc(-c2ccccc2)nc1CC(=O)NC(c1ccc(C(=O)NO)cc1)C(C)C (stereo not shown) [Compound I-48, N-hydroxy-4-(2-methyl-1-{[(5-methyl-2-phenyl-1,3-oxazol-4-yl)acetyl]amino}propyl)benzamide]",6.30 to 7.00
11,"C[C@H](NC(=O)c1cc2ccccc2s1)c1ccc(C(=O)NO)cc1 [Compound I-53, N-((1S)-1-{4-[(hydroxyamino)carbonyl]phenyl}ethyl)-1-benzothiophene-2-carboxamide]",> 7.00
12,"Cc1ccc(NC(=O)NC(C)c2ccc(C(=O)NO)cc2)cc1C (stereo not shown) [Compound I-55, 4-[1-({[(3,4-dimethylphenyl)amino]carbonyl}amino)ethyl]-N-hydroxybenzamide]",> 7.00
13,"CC(C)C(NC(=O)C12CC3CC(CC(C3)C1)C2)c1ccc(C(=O)NO)cc1 (stereo not shown) [Compound I-58, N-(1-{4-[(hydroxyamino)carbonyl]phenyl}-2-methylpropyl)adamantane-1-carboxamide]",> 7.00
14,"CC(NC(=O)C(C)(C)C)c1ccc(C(=O)NO)cc1 (stereo not shown) [Compound I-59, 4-{1-[(2,2-dimethylpropanoyl)amino]ethyl}-N-hydroxybenzamide]",> 7.00
15,"CCC[C@@H](NC(=O)c1sc2ccccc2c1C)c1ccc(C(=O)NO)cc1 [Compound I-62, N-((1R)-1-{4-[(hydroxyamino)carbonyl]phenyl}butyl)-3-methyl-1-benzothiophene-2-carboxamide]",> 7.00
16,"CC(NC(=O)c1ccc(-n2cccc2)cc1)c1ccc(C(=O)NO)cc1 (stereo not shown) [Compound I-63, N-(1-{4-[(hydroxyamino)carbonyl]phenyl}ethyl)-4-(1H-pyrrol-1-yl)benzamide]",> 7.00
17,"CC(C)[C@@H](NC(=O)c1cccn1C)c1ccc(C(=O)NO)cc1 [Compound I-65, N-((1R)-1-{4-[(hydroxyamino)carbonyl]phenyl}-2-methylpropyl)-1-methyl-1H-pyrrole-2-carboxamide]",> 7.00
18,"Cn1ccc(C(=O)NC(c2ccc(C(=O)NO)cc2)C(C)(C)C)n1 (stereo not shown) [Compound I-66, N-(1-{4-[(hydroxyamino)carbonyl]phenyl}-2,2-dimethylpropyl)-1-methyl-1H-pyrazole-3-carboxamide]",6.30 to 7.00
19,"CC(C)[C@H](NC(=O)c1cc2ccccc2s1)c1ccc(C(=O)NO)cc1 [Compound I-67, N-((1S)-1-{4-[(hydroxyamino)carbonyl]phenyl}-2-methylpropyl)-1-benzothiophene-2-carboxamide]",6.30 to 7.00
20,"CC(C)[C@@H](NC(=O)c1cc2ccccc2[nH]1)c1ccc(C(=O)NO)cc1 [Compound I-68, N-((1R)-1-{4-[(hydroxyamino)carbonyl]phenyl}-2-methylpropyl)-1H-indole-2-carboxamide]",> 7.00
21,"Cc1ccc2[nH]c(C(=O)NC(c3ccc(C(=O)NO)cc3)C(C)C)cc2c1 (stereo not shown) [Compound I-69, N-(1-{4-[(hydroxyamino)carbonyl]phenyl}-2-methylpropyl)-5-methyl-1H-indole-2-carboxamide]",> 7.00
22,"CC(NC(=O)Nc1ccc2c(c1)OCO2)c1ccc(C(=O)NO)cc1 (stereo not shown) [Compound I-71, 4-(1-{[(1,3-benzodioxol-5-ylamino)carbonyl]amino}ethyl)-N-hydroxybenzamide]",> 7.00
23,"C[C@@H](NC(=O)C(C)(C)C)c1ccc(C(=O)NO)cc1 [Compound I-73, 4-{(1R)-1-[(2,2-dimethylpropanoyl)amino]ethyl}-N-hydroxybenzamide]",> 7.00
24,"CC(NC(=O)Nc1ccccc1F)c1ccc(C(=O)NO)cc1 (stereo not shown) [Compound I-74, 4-[1-({[(2-fluorophenyl)amino]carbonyl}amino)ethyl]-N-hydroxybenzamide]",> 7.00

# From patent US9382197B2, “Substituted hydroxamic acids and uses thereof” (Millennium Pharmaceuticals, Inc., priority 2010, dated 2016)
